Data on 2 compounds can be found in patent publication US6635436B2, “Methods for the screening of non-recombinant cell lines capable of expressing a single PDE4 isoenzyme and for the screening of PDE4 inhibitors” (Warner-Lambert Company, priority 1999, dated 2003).

One assay concerns PDE 4D3. Nature of the assay: Semi-quantitative RT-PCR of PDE4D3 expression in treated human cell lines. The class given is cell-based. Particulars: control normalized to 1. How it is done:
(§1) RNA was purified using Tripure™ Isolation Reagent, a single-step liquid phase separation issued from the total RNA isolation method developed by Chomczynski and Sacchi (1987). Washed and pelleted cells were resuspended at a concentration of 1×10^6 cells/ml Tripure and the total RNA extracted was quantified spectrophotometrically. RT-PCR was carried out using the commercial PCR ELISA Dig Labelling Kit. First strand cDNA was generated from 1 μg of total RNA per sample using random hexamers to prime the reverse transcription (First Strand cDNA Synthesis Kit for RT-PCR) and was directly amplified by PCR following the addition of specific primer pairs. Oligonucleotide primers were: PDE4A, 5′-[…]-3′ (SEQ ID N^o1) and 5′-[…]-3′ (SEQ ID N^o2), defining a 439-bp product; PDE4B, 5′-[…]-3′ and 5′-[…]-3′, defining a 327-bp product; PDE4C, 5′-[…]-3′ and 5′-[…]-3′ defining a 331-bp product; PDE4D, 5′-[…]-3′ and 5′-[…]-3′, defining a 339-bp product. The 5′-biotin-labelled capture probes used for the detection of PCR fragments were: 5′-[…]-3′ for PDE4A, 5′-[…]-3′ for PDE4B, 5′-[…]-3′ for PDE4C, 5′-[…]-3′ for PDE4D. Briefly, this PCR ELISA allows the specific detection of PCR products in a semi-quantitative microtiter plate format. The PCR products are labelled with digoxigenin during the amplification process (dig labelling). The labelled PCR products are analyzed by solution hybridization to a specific capture probe that is complementary to the inner part of the amplification product (dig detection). This capture probe is labelled with biotin to allow immobilization of the hybrid to a streptavidin coated microtiterplate surface. Unspecific amplification products will not hybridized to this capture probe and thus will be removed during the following washing steps; The bound hybrid is detected by an anti-digoxigenin peroxidase conjugate and by use of the calorimetric substrate ABTS. In comparison with suitable standards the color signal can be used for semi-quantitative evaluation of an amplification reaction. In our experiments the PDE4 subtypes PCR fragments amplified in the control cells (cells non treated with any of the compound tested), were our standards and the optical densities found for these PCR-fragments were normalized to 1.
(§2) All the cell lines used in this study were obtained from the European Collection of Cell Culture (ECACC). U-937, HT-29, HL-60, Jurkat, MOLT-4, HK-293, CACO2 were grown in RPMI 1640 medium supplemented with 10% (v/v) heat-inactivated calf serum at 37° C. in an humidified atmosphere of 95% air-5% CO2. […] Cells in suspension were seeded at 10^6 cells/ml and adherent ones were used when confluent. After the required incubation times, 10^6 cells were used for mRNA extraction and 2.5×10^8 for proteins extraction.
(§3) The control cells received 1% DMSO for 2 hours or 3 days. After treated, the cells were washed and prepared for mRNA extraction as described in the Materials and Methods section. PCR fragments were quantified by semi-quantitative PCR: The expression of the subtypes in control cells was normalized to 1 to allow expression of the data found in the treated cells as an x-fold increase or decrease expression of each subtype in comparison to the control value.
(§4) The expression of the subtypes in control cells was normalized to 1 to be able to express the data found in the treated cells as an x-fold increase or decrease expression of each subtype in comparison to the control value. The results obtained are summarised in table 2 and here again, none of the treatment used was able to induce the expression of a C subtype.

The test system of another assay is PDE4B. Nature of the assay: Semi-quantitative RT-PCR of PDE4B expression in treated human cell lines. The class given is cell-based. Particulars: control normalized to 1. The procedure:
as §1, §2, §3, §4

A further assay relates to PDE4A. Nature of the assay: Semi-quantitative RT-PCR of PDE4A expression in treated human cell lines. The class given is cell-based. Particulars: control normalized to 1. The procedure: as §1, §2, §3, §4
For the next assay, the system named is PDE4D. Nature of the assay: Semi-quantitative RT-PCR of PDE4D expression in treated human cell lines. It is filed as cell-based. Particulars: control normalized to 1. How it is done: as §1, §2, §3, §4
Another assay has as its system PDE4. Nature of the assay: Chromatographic resolution and assay of PDE activities in control and PMA-treated cells. The class given is cell-based, human. Particulars: HL-60 cells treated with 1 μM PMA for 72 hours; control cells 0.14. How it is done:
as §2
The adherent cells were disrupted by trypsinisation and along with the non-adherent cells were washed carefully at least twice with sterile PBS and counted. […]
Phosphodiesterase activities were assayed using a modification of the method described by Smith et al. (1993) utilizing the observation that 5′-nucleotides bind very strongly to alumina while the cyclic nucleotides are readily eluted at neutral or slightly alkaline pH. […] The separated [^3H]cAMP was back-corrected for recovery using the separated and non-separated ^14C values and expressed as a fraction of the total [^3H]cAMP to give the amount of substrate hydrolyzed.
These studies were conducted originally to set up PDE4 subtype cellular assays, for this reason the cell lines that were expressing either a single or majority of a single subtype after the different treatments, were analysed for their phosphodiesterase activities. […]

Each structure is given as a SMILES string.

As for `C[C@@H]1C[C@H]2[C@@H]3CCC4=CC(=O)C=C[C@]4(C)[C@@]3(F)[C@@H](O)C[C@]2(C)[C@@]1(O)C(=O)CO` [Dexamethasone, dexamethasone], the “PDE4 D3 x-fold change in expression vs control (number in brackets)” value with PDE 4D3 (CACO-2 cells), in the assay with PDE 4D3 (HK-293 cells), with PDE 4D3 (HL-60 cells) and in the assay with PDE 4D3 (HT-29 cells) was 1 fold each time. The “PDE4 subtype B x-fold change in expression vs control (number in brackets)” value in the assay on PDE4B (HK-293 cells) is −1.5 fold; in the assay on PDE4B (HL-60 cells), −1.2 fold; with PDE4B (Jurkat cells) it was 1 fold; in the assay on PDE4B (Molt-4 cells) it was 1 fold. The “PDE4 subtype A x-fold change in expression vs control (number in brackets)” value (from here on “PDE4 subtype A x-fold change”) with PDE4A (CACO-2 cells) was determined as 1 fold; in the assay on PDE4A (HK-293 cells), 1 fold; with PDE4A (HL-60 cells), 1 fold; in the assay with PDE4A (HT-29 cells) it was 1 fold; in the assay on PDE4A (Jurkat cells) it was 1 fold; in the assay on PDE4A (Molt-4 cells) it was 2 fold. Also, in the assay with PDE4A (Molt-4 cells, listed as dexamethasone), the “PDE4 subtype A x-fold change” value is reported as “+2 fold”. The “PDE4 subtype D x-fold change in expression vs control (number in brackets)” value was determined as 1 fold in the assay on PDE4D (CACO-2 cells); 1 fold in the assay with PDE4D (HK-293 cells); 1 fold in the assay with PDE4D (HL-60 cells); 1 fold in the assay on PDE4D (HT-29 cells); 1 fold in the assay on PDE4D (Jurkat cells); 1.1 fold with PDE4D (Molt-4 cells).
For `CCCCCCCCCCCCCC(=O)O[C@@H]1[C@@H](C)[C@@]2(O)[C@@H](C=C(CO)C[C@]3(O)C(=O)C(C)=C[C@@H]23)[C@@H]2C(C)(C)[C@]12OC(C)=O` [PMA, phorbol myristate acetate], the “PDE4 D3 x-fold change in expression vs control (number in brackets)” value is given as −1.1 fold with PDE 4D3 (CACO-2 cells), 1 fold in the assay on PDE 4D3 (HK-293 cells) and 1 fold with PDE 4D3 (HT-29 cells). The “maximum PDE4 activity” value with PDE4 was found to be 0.9 pmol AMP formed/min/μl. The “PDE4 subtype B x-fold change in expression vs control (number in brackets)” value with PDE4B (HK-293 cells) was 1 fold; in the assay with PDE4B (HL-60 cells), −12.2 fold; in the assay on PDE4B (Jurkat cells) it was −2 fold; in the assay on PDE4B (Molt-4 cells) it was 1 fold. Further, the “PDE4 subtype A x-fold change” value with PDE4A (CACO-2 cells) is listed as 1 fold; in the assay with PDE4A (HK-293 cells) it was 1 fold; with PDE4A (HT-29 cells) it was 1.5 fold; in the assay on PDE4A (Jurkat cells), 1 fold; with PDE4A (Molt-4 cells), −1.5 fold. Besides, the “PDE4 subtype D x-fold change in expression vs control (number in brackets)” value in the assay on PDE4D (HL-60 cells) is recorded as −14.5 fold; in the assay on PDE4D (HT-29 cells) it was 1.8 fold; with PDE4D (Jurkat cells), −1.9 fold; in the assay on PDE4D (Molt-4 cells), 1.1 fold.
